{
  "source": "patent US20030074686A1",
  "about": "“Novel method for the generation and selection of transgenic linseed/flax plants” (priority 1999, published 2003)",
  "key": {"[1]": {"test_system": "Ed 45 288 transgenic shoots (JH5 vector)", "test": "Survival of transgenic shoots on medium with G-418", "assay_type": "in vivo, Linum usitatissimum", "settings": "of four shoots", "excerpt": "(§1) Preferably, testing the two antibiotic system in the transformation experiments is done using kanamycin for the initial selection and G-418 for the second and third rounds of selection (FIG. 1)."}, "[2]": {"test_system": "Flanders 301 transgenic shoots (JH5 vector)", "test": "Survival of transgenic shoots on medium with G-418", "assay_type": "in vivo, Linum usitatissimum", "settings": "of four shoots", "excerpt": "as §1"}, "[3]": {"test_system": "McGregor 324 transgenic shoots (JH5 vector)", "test": "Survival of transgenic shoots on medium with G-418", "assay_type": "in vivo, Linum usitatissimum", "settings": "of four shoots", "excerpt": "as §1"}, "[4]": {"test_system": "Flanders WT shoots", "test": "Survival of wild-type shoots on medium with G-418", "assay_type": "in vivo, Linum usitatissimum", "settings": "of four shoots", "excerpt": "as §1"}, "[5]": {"test_system": "McGregor WT shoots", "test": "Survival of wild-type shoots on medium with G-418", "assay_type": "in vivo, Linum usitatissimum", "settings": "of four shoots", "excerpt": "as §1"}, "[6]": {"test_system": "Ed 45 WT shoots", "test": "Survival of wild-type shoots on medium with G-418", "assay_type": "in vivo, Linum usitatissimum", "settings": "of four shoots"}, "[7]": {"test_system": "hypocotyl segments used for the Agrobacterium tumefaciens inoculation", "test": "Sensitivity of hypocotyl segments to selection antibiotics", "assay_type": "in vivo, flax", "settings": "selective antibiotic for the initial transformation", "excerpt": "as §1"}, "[8]": {"test_system": "wild-type flax regenerated shoots", "test": "Tolerance of regenerated shoots to G-418", "assay_type": "in vivo", "settings": "tests using regenerated shoots", "excerpt": "as §1"}},
  "note": "Values joined by “and” are separate entries in the source; they are usually repeats but may differ in a detail not shown here. Identical values can stand only once.",
  "data": [
    {"smiles": "CN[C@@H]1[C@@H](O)[C@@H](O[C@@H]2[C@@H](O)[C@H](O[C@H]3O[C@H]([C@@H](C)O)[C@@H](O)[C@H](O)[C@H]3N)[C@@H](N)C[C@H]2N)OC[C@]1(C)O", "note": "[G-418]", "values": [
      {"measurement": "Number of shoots surviving 24 days on medium with G-418", "setting": "[1]; G-418 10 mg/l", "result": 4},
      {"measurement": "Number of shoots surviving 24 days on medium with G-418", "setting": "[1]; G-418 20 mg/l", "result": 4},
      {"measurement": "Number of shoots surviving 24 days on medium with G-418", "setting": "[1]; G-418 30 mg/l", "result": 4},
      {"measurement": "Number of shoots surviving 24 days on medium with G-418", "setting": "[1]; G-418 40 mg/l", "result": 4},
      {"measurement": "Number of shoots surviving 24 days on medium with G-418", "setting": "[1]; G-418 50 mg/l", "result": "4 and 3"},
      {"measurement": "Number of shoots surviving 24 days on medium with G-418", "setting": "[1]; G-418 70 mg/l", "result": 4},
      {"measurement": "Number of shoots surviving 24 days on medium with G-418", "setting": "[1]; G-418 100 mg/l", "result": "3 and 4"},
      {"measurement": "Number of shoots surviving 24 days on medium with G-418", "setting": "[2]; G-418 10 mg/l", "result": 4},
      {"measurement": "Number of shoots surviving 24 days on medium with G-418", "setting": "[2]; G-418 20 mg/l", "result": 4},
      {"measurement": "Number of shoots surviving 24 days on medium with G-418", "setting": "[2]; G-418 30 mg/l", "result": "3 and 4"},
      {"measurement": "Number of shoots surviving 24 days on medium with G-418", "setting": "[2]; G-418 40 mg/l", "result": 4},
      {"measurement": "Number of shoots surviving 24 days on medium with G-418", "setting": "[2]; G-418 50 mg/l", "result": 4},
      {"measurement": "Number of shoots surviving 24 days on medium with G-418", "setting": "[2]; G-418 70 mg/l", "result": 4},
      {"measurement": "Number of shoots surviving 24 days on medium with G-418", "setting": "[2]; G-418 100 mg/l", "result": "4 and 3"},
      {"measurement": "Number of shoots surviving 24 days on medium with G-418", "setting": "[2]; G-418 150 mg/l", "result": "2 and 4"},
      {"measurement": "Number of shoots surviving 24 days on medium with G-418", "setting": "[2]; G-418 200 mg/l", "result": "1 and 2"},
      {"measurement": "Number of shoots surviving 24 days on medium with G-418", "setting": "[3]; G-418 10 mg/l", "result": 4},
      {"measurement": "Number of shoots surviving 24 days on medium with G-418", "setting": "[3]; G-418 20 mg/l", "result": 4},
      {"measurement": "Number of shoots surviving 24 days on medium with G-418", "setting": "[3]; G-418 30 mg/l", "result": 4},
      {"measurement": "Number of shoots surviving 24 days on medium with G-418", "setting": "[3]; G-418 40 mg/l", "result": 4},
      {"measurement": "Number of shoots surviving 24 days on medium with G-418", "setting": "[3]; G-418 50 mg/l", "result": 4},
      {"measurement": "Number of shoots surviving 24 days on medium with G-418", "setting": "[3]; G-418 70 mg/l", "result": 4},
      {"measurement": "Number of shoots surviving 24 days on medium with G-418", "setting": "[3]; G-418 100 mg/l", "result": 4},
      {"measurement": "Number of shoots surviving 24 days on medium with G-418", "setting": "[3]; G-418 150 mg/l", "result": "4 and 3"},
      {"measurement": "Number of shoots surviving 24 days on medium with G-418", "setting": "[4]; G-418 10 mg/l", "result": 4},
      {"measurement": "Number of shoots surviving 24 days on medium with G-418", "setting": "[4]; G-418 20 mg/l", "result": "3 and 4"},
      {"measurement": "Number of shoots surviving 24 days on medium with G-418", "setting": "[4]; G-418 50 mg/l", "result": 0},
      {"measurement": "Number of shoots surviving 24 days on medium with G-418", "setting": "[4]; G-418 70 mg/l", "result": 0},
      {"measurement": "Number of shoots surviving 24 days on medium with G-418", "setting": "[4]; G-418 100 mg/l", "result": 0},
      {"measurement": "Number of shoots surviving 24 days on medium with G-418", "setting": "[4]; G-418 150 mg/l", "result": 0},
      {"measurement": "Number of shoots surviving 24 days on medium with G-418", "setting": "[4]; G-418 200 mg/l", "result": 0},
      {"measurement": "Number of shoots surviving 24 days on medium with G-418", "setting": "[5]; G-418 10 mg/l", "result": 4},
      {"measurement": "Number of shoots surviving 24 days on medium with G-418", "setting": "[5]; G-418 20 mg/l", "result": "4 and 3"},
      {"measurement": "Number of shoots surviving 24 days on medium with G-418", "setting": "[5]; G-418 30 mg/l", "result": 2},
      {"measurement": "Number of shoots surviving 24 days on medium with G-418", "setting": "[5]; G-418 50 mg/l", "result": 0},
      {"measurement": "Number of shoots surviving 24 days on medium with G-418", "setting": "[5]; G-418 70 mg/l", "result": 0},
      {"measurement": "Number of shoots surviving 24 days on medium with G-418", "setting": "[5]; G-418 100 mg/l", "result": 0},
      {"measurement": "Number of shoots surviving 24 days on medium with G-418", "setting": "[5]; G-418 150 mg/l", "result": 0},
      {"measurement": "Number of shoots surviving 24 days on medium with G-418", "setting": "[5]; G-418 200 mg/l", "result": 0},
      {"measurement": "Number of shoots surviving 24 days on medium with G-418", "setting": "[6]; G-418 10 mg/l", "result": 4},
      {"measurement": "Number of shoots surviving 24 days on medium with G-418", "setting": "[6]; G-418 20 mg/l", "result": "1 and 2"},
      {"measurement": "Number of shoots surviving 24 days on medium with G-418", "setting": "[6]; G-418 30 mg/l", "result": "1 and 2"},
      {"measurement": "Number of shoots surviving 24 days on medium with G-418", "setting": "[6]; G-418 40 mg/l", "result": 0},
      {"measurement": "Number of shoots surviving 24 days on medium with G-418", "setting": "[6]; G-418 50 mg/l", "result": 0},
      {"measurement": "Number of shoots surviving 24 days on medium with G-418", "setting": "[6]; G-418 70 mg/l", "result": 0},
      {"measurement": "Number of shoots surviving 24 days on medium with G-418", "setting": "[6]; G-418 100 mg/l", "result": 0},
      {"measurement": "Number of shoots surviving 24 days on medium with G-418", "setting": "[6]; G-418 150 mg/l", "result": 0},
      {"measurement": "Number of shoots surviving 24 days on medium with G-418", "setting": "[6]; G-418 200 mg/l", "result": 0},
      {"measurement": "Callus production with the antibiotic as selective agent", "setting": "[7]", "result": "no callus was produced"},
      {"measurement": "Natural tolerance of wild-type flax", "setting": "[8]", "result": "no natural tolerance"}
    ]}
  ]
}
